Experiment [1] addresses C-C motif chemokine 2 (Homo sapiens) (UniProt P13500). Kind of experiment: Inhibition of CCL2 in human THP1 cells assessed as reduction of cell migration into TNFalpha/IFNgamma-stimulated HMEC-1 cells at 50 uM after 4 hrs. Format: cell-based. As to conditions: THP-1.
Experiment [2] has the same target. Kind of experiment: Inhibition of CCL2 in human THP1 cells assessed as reduction of cell migration at 100 uM after 3 hrs. Format: cell-based. The following applies: THP-1.
The target is the same in experiment [3]. Briefly: Inhibition of CCL2 in human THP1 cells assessed as reduction of cell migration at 50 uM after 3 hrs. Format: cell-based. As to conditions: THP-1.
For experiment [4] the target is unchanged. Briefly: Inhibition of CCL2 in human THP1 cells assessed as effect on level of ERK1/2 phosphorylation at 50 uM after 5 mins by Western blot analysis. Format: cell-based. As to conditions: THP-1. Background: A western blot detects proteins with antibodies after separation by electrophoresis.
Experiment [5] shares this target. Briefly: Inhibition of CCL2 in human PBMC assessed as reduction of cell adhesion to VCAM1-Fc at 50 uM by flow based adhesion assay.
Experiment [6] concerns the target T1, C-C motif chemokine 5 (Homo sapiens) (UniProt P13501).
T1 sequence (whole entry): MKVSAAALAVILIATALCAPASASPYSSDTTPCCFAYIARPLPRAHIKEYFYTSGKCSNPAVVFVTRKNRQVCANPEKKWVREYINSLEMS
Kind of experiment: Inhibition of CCL5 in human THP1 cells assessed as reduction of cell migration at 50 uM after 3 hrs. Format: cell-based. As to conditions: THP-1.

Experiment [7] has as its target C-C motif chemokine 7 (Homo sapiens) (UniProt P80098). Kind of experiment: Inhibition of CCL7 in human THP1 cells assessed as reduction of cell migration at 50 uM after 3 hrs. Format: cell-based. As to conditions: THP-1.
The target in experiment [8] is C-C motif chemokine 2 (Homo sapiens) (UniProt P13500). Briefly: Inhibition of CCL2 in human PBMC assessed as reduction of cell migration into TNFalpha/IFNgamma-stimulated HMEC-1 cells at 50 uM after 4 hrs. Format: cell-based.

Active and inactive are the calls of the source. No cut-off for these calls is given here.

C-C motif chemokine 2 (Homo sapiens), sequence (P13500 24-99 limits assumed): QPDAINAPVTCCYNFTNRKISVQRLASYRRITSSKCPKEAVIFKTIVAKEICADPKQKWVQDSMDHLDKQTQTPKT
C-C motif chemokine 7 (Homo sapiens), sequence (P80098 whole entry): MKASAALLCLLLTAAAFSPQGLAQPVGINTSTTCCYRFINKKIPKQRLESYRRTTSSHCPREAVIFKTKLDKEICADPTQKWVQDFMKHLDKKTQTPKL

As to `O=C1N[C@@H](Cc2ccc(F)cc2)C(=O)N2CCC[C@@H]12`, the figures for the inhibition in experiment [1], in experiment [3] and in experiment [5] were 70%, 40% and 35%, respectively. For the same compound, the inhibition result in experiment [2] and in experiment [8] was “Active” each time. For the same compound, the inhibition result in experiment [4], in experiment [6] and in experiment [7] was “inactive” in each case.
With `O=C1N[C@@H](Cc2ccccc2)C(=O)N2CCC[C@@H]12`, in experiment [1], the inhibition worked out at 50%. In addition, the inhibition entry in experiment [2], in experiment [3] and in experiment [8] was “Active” throughout. Moreover, the inhibition result in experiment [4] was “inactive”.

For orientation: inhibition means the relative decrease from the control value, in per cent.

For the origin of these results see ChEMBL document CHEMBL3217544, “Evaluation of two cyclic di-peptides as inhibitors of CCL2 induced chemotaxis” (Medchemcomm, 2013).
